Data on three compounds can be found in US6413539B1, “Hydrogel-forming, self-solvating absorbable polyester copolymers, and methods for use thereof” (Poly-Med, Inc., priority 1996, dated 2002).

This data set in a line: Binding of acidic organic drugs to anion-exchanger. The format is physicochemical. The note with it: sodium salt of drug; anion-exchanger of Example XIII. The procedure: The preparation of the anion-exchanger is achieved in two steps. […] In the second step, the practically non-ionic microparticles are incubated in hot dilute solution (^˜80° C.) of hexanediamine of known concentration in dioxane under argon for 2-4 hours. The concentration of the diamine in dioxane is determined by acidimetry. When the reaction practically ceases to take place, the aminated microparticles are separated by filtration, rinsed with dioxane, and dried under reduced pressure. The binding capacity of the anion-exchanger (aminated particles) is determined by (1) elemental analysis for nitrogen and (2) extent of binding to naproxin by measuring the extent of drug removed from a dilute solution using HPLC. The latter is confirmed by release of the immobilized naproxin with a dilute sodium hydroxide solution of known concentration.
Typical examples of acidic organic drugs that are available as sodium salt are ganciclovir, naproxin, and ibuprofen. In typical experiments, the aforementioned drugs are bound to the anion-exchanger of Example XIII following a similar scheme to that used in the same example describing the binding of naproxin.
Turning to `Nc1nc(O)c2ncn(COC(CO)CO)c2n1` [Ganciclovir, ganciclovir], the “% Drug bound to anion-exchanger” value was determined as 6%.

On to `CC(C)Cc1ccc(C(C)C(=O)O)cc1` (stereo not drawn) [Ibuprofen, ibuprofen], for which the “% Drug bound to anion-exchanger” value is reported as 8%.

`COc1ccc2cc([C@H](C)C(=O)O)ccc2c1` [Naproxin, naproxin]: the “% Drug bound to anion-exchanger” value was found to be 11%.
